According to patent US11052063B2, “Methods of reducing RLP-C” (Amarin Pharmaceuticals Ireland Limited, priority 2014, dated 2021):

Tested on: Serum RLP-C
Assay: 12-week placebo-controlled study (ANCHOR), serum RLP-C by immunoseparation assay, statin-treated patients with fasting TG ≥200 and <500 mg/dl
Assay type: in vivo, human
Conditions: for Median Change from Baseline in RLP-C vs. Placebo: Hodges-Lehmann estimate; for Median Change from Baseline in RLP-C vs. Placebo / RLP-C Concentration End of Treatment: week 12; for RLP-C Concentration Change: median change from baseline to week 12; for RLP-C Concentration Baseline / RLP-C Concentration End of Treatment: median; for RLP-C Concentration Baseline: before treatment
Method: A multi-center, placebo-controlled, randomized, double-blind, 12-week study was performed to evaluate the efficacy and safety of >96% E-EPA in patients with fasting triglyceride levels≥200 mg/dl and <500 mg/dl despite statin therapy (the mean of two qualifying entry values needed to be ≥185 mg/dl and at least one of the values needed to be ≥200 mg/dl). The primary objective of the study was to determine the efficacy of >96%, by weight of all fatty acids present, ethyl-EPA (“AMR101”) 2 g daily and 4 g daily, compared to placebo, in lowering fasting TG levels in patients with high risk for cardiovascular disease and with fasting TG levels≥200 mg/dl and <500 mg/dl, despite treatment to LDL-C goal on statin therapy. The population for this study was men and women>18 years of age with a body mass index≤45 kg/m^2 with fasting TG levels greater than or equal to 200 mg/dl and less than 500 mg/dl and on a stable does of statin therapy (with or without ezetimibe). The statin was atorvostatin, rosuvastatin or simvastatin. The dose of statin must have been stable for ≥4 weeks prior to the LDL-C/TG baseline qualifying measurement for randomization. The statin dose was optimized such that the patients are at their LDL-C goal at the LDL-C/TG baseline qualifying measurements. The same statin at the same dose was continued until the study ended. Approximately 702 patients were randomized at approximately 80 centers in the U.S. The study was a 18- to 20-week, Phase 3, multi-center study consisting of 2 study periods: (1) A 6- to 8-week screening period that included a diet and lifestyle stabilization, a non-statin lipid-altering treatment washout, and an LDL-C and TG qualifying period and (2) A 12-week, double-blind, randomized, placebo-controlled treatment period. After confirmation of qualifying fasting LDL-C and TG values, eligible patients entered a 12-week, randomized, double-blind treatment period. At Visit 4 (Week 0), patients were randomly assigned to 1 of the following treatment groups: • >96% E-EPA 2 g daily, • >96% E-EPA 4 g daily, or • Placebo. >96% E-EPA was provided in 1 g liquid-filled, oblong, gelatin capsules. The matching placebo capsule was filled with light liquid paraffin and contained 0 g of >96% E-EPA. >96% E-EPA capsules were to be taken with food (i.e. with or at the end of a meal). During the double-blind treatment period, patients were to take 2 capsules (>96% E-EPA or matching placebo) in the morning and 2 capsules in the evening for a total of 4 capsules per day. • Patients in the >96% E-EPA 2 g/day treatment group received 1 >96% E-EPA 1 g capsule and 1 matching placebo capsule in the morning and in the evening. • Patients in the >96% E-EPA 4 g/day treatment group received 2 >96% E-EPA 1 g capsules in the morning and evening. The primary efficacy variable for the double-blind treatment period was percent change in TG from baseline to Week 12 endpoint. […]

[1] = 2 g/day, Baseline TG <259 mg/dl
[2] = 2 g/day, Baseline TG ≥259 mg/dl
[3] = 2 g/day, Lower Statin Intensity
[4] = 2 g/day, Medium and Higher Statin Intensity
[5] = 4 g/day, Baseline TG <259 mg/dl
[6] = 4 g/day, Baseline TG ≥259 mg/dl
[7] = 4 g/day, Lower Statin Intensity
[8] = 4 g/day, Medium and Higher Statin Intensity

Compound: CC/C=C\C/C=C\C/C=C\C/C=C\C/C=C\CCCC(=O)OCC [AMR101, ethyl-EPA]
- RLP-C compared to placebo (2 g/day treatment group, 12 weeks): reduced RLP-C compared to placebo
- Median Change from Baseline in RLP-C vs. Placebo [1]: −16.4%
- RLP-C Concentration Change [1]: −8.1%
- RLP-C Concentration Baseline [1]: 11.5 mg/dL
- RLP-C Concentration End of Treatment [1]: 11.0 mg/dL
- Median Change from Baseline in RLP-C vs. Placebo [2]: −18.0%
- RLP-C Concentration Change [2]: −17.4%
- RLP-C Concentration Baseline [2]: 18.0 mg/dL
- RLP-C Concentration End of Treatment [2]: 13.5 mg/dL
- Median Change from Baseline in RLP-C vs. Placebo (2 g/day, ITT): −16.7%
- RLP-C Concentration Change (2 g/day, ITT): −11.1%
- RLP-C Concentration Baseline (2 g/day, ITT): 15.0 mg/dL
- RLP-C Concentration End of Treatment (2 g/day, ITT): 11.0 mg/dL
- Median Change from Baseline in RLP-C vs. Placebo [3]: 2.7%
- RLP-C Concentration Change [3]: −11.1%
- RLP-C Concentration Baseline [3]: 15.0 mg/dL
- RLP-C Concentration End of Treatment [3]: 11.0 mg/dL
- Median Change from Baseline in RLP-C vs. Placebo [4]: −17.3%
- RLP-C Concentration Change [4]: −11.1%
- RLP-C Concentration Baseline [4]: 15.0 mg/dL
- RLP-C Concentration End of Treatment [4]: 11.0 mg/dL
- median placebo-adjusted reduction in RLP-C (4 g/day treatment group, 12 weeks, p=0.0001, stated as reduction): 25.8%
- reductions in RLP-C compared to baseline (4 g/day treatment group, 12 weeks, stated as reduction): 24.0%
- Median Change from Baseline in RLP-C vs. Placebo [5]: −22.2%
- RLP-C Concentration Change [5]: −16.0%
- RLP-C Concentration Baseline [5]: 11.0 mg/dL
- RLP-C Concentration End of Treatment [5]: 9.0 mg/dL
- Median Change from Baseline in RLP-C vs. Placebo [6]: −30.6%
- RLP-C Concentration Change [6]: −31.3%
- RLP-C Concentration Baseline [6]: 17.0 mg/dL
- RLP-C Concentration End of Treatment [6]: 11.0 mg/dL
- Median Change from Baseline in RLP-C vs. Placebo (4 g/day, ITT): −25.8%
- RLP-C Concentration Change (4 g/day, ITT): −24.0%
- RLP-C Concentration Baseline (4 g/day, ITT): 13.5 mg/dL
- RLP-C Concentration End of Treatment (4 g/day, ITT): 10.0 mg/dL
- Median Change from Baseline in RLP-C vs. Placebo [7]: −11.9%
- RLP-C Concentration Change [7]: −29.2%
- RLP-C Concentration Baseline [7]: 16.0 mg/dL
- RLP-C Concentration End of Treatment [7]: 15.0 mg/dL
- Median Change from Baseline in RLP-C vs. Placebo [8]: −26.7%
- RLP-C Concentration Change [8]: −23.1%
- RLP-C Concentration Baseline [8]: 13.0 mg/dL
- RLP-C Concentration End of Treatment [8]: 10.0 mg/dL
- RLP-C reductions by statin intensity (subjects on moderate- to high-intensity statin therapy compared to lower-intensity statin therapy): greater RLP-C reductions
